Assay results taken from patent US20250127777A1, “DUAL INHIBITION OF MDM2 AND EIF2-ALPHA INDUCES CELL DEATH IN MULTIPLE CANCER CELL TYPES” (The Regents of the University of Colorado, A Body Corporate, priority 2022, published 2025).

How the values were obtained:
HCT116 xenograft tumors = experiment: HCT116 xenograft tumor model; assay type: in vivo; details: nude mice, 200 mg/kg nelfinavir and/or 200 mg/kg milademetan
Description: Athymic nude mice (NU/NU) weighting 20 to 30 grams and being 8-12 weeks of age (Charles River Labs) were housed in cages under standard conditions (22° C., 50% relative humidity, 12-h light/dark cycles) and provided with food and water ad libitum. Next, […] exponentially growing HCT116 cells resuspended in 100 μl Matrigel/PBS (5 mg/ml final) were injected subcutaneously into both flanks. Tumors grew for 10-14 days before treatment initiation. Experimental animals were given 200 mg/kg nelfinavir and/or 200 mg/kg Milademetan (Rain Therapeutics) by oral gavage once daily, 5 days a week. Tested compounds were prepared in a mixture of 2% Klucel (hydroxypropyl cellulose), 0.5% Tween 80, and 35% ethanol. Tumor volumes (v) were estimated daily, 5 days a week using caliper measurements and formula v=(I×w^2)/2, where I represents the greatest length of the tumor and w is tumor width in the perpendicular axis. Average volumes of the right and left flank tumors were used for plotting and calculations. Equal ratios of male and female mice were used in treatment groups (5 males and 5 females). All in vivo experiments were approved by the Institutional Animal Care and Use Committee at the CU-AMC (IACUC protocol 00432).
(§1) After indicated treatments, cells were washed with PBS, total RNA was extracted using Trizol substitute (38% Phenol, saturated, pH 4.3, 0.8 M guanidine thiocyanate, 0.4 M ammonium thiocyanate, 0.1 M sodium acetate, pH 5.0, 5% glycerol), and converted to cDNA with High-Capacity cDNA Reverse Transcription Kit (Thermo Fisher). Next, diluted cDNA was used in quantitative PCR reaction using SYBR Select Master Mix for CFX (Thermo Fisher). Detected mRNA levels were normalized to 18s rRNA values.
Tumors fixed in 4% formaldehyde were transferred to 70% ethanol and embedded in paraffin at the Pathology Shared Resource-Research Histology, University of Colorado Anschutz Medical Campus. Three tumors from each experimental group were sectioned, stained with DAPI and Ki67 primary antibody using Akoya Opal technology (Akoya Biosciences), and scanned at six representative regions with Vectra 3.0 (Akoya Biosciences) at the Human Immune Monitoring Shared Resource (University of Colorado Anschutz). Next, InForm image analysis software (Akoya Biosciences) was used for automated identification of nuclei based on the DAPI signal. Ki67 nuclear fluorescence was outputted for all nuclei.

cell viability = experiment: Cell viability after single-agent treatment; assay type: cell-based
K1 cells [1] = experiment: Annexin V-FITC/PI apoptosis assay by flow cytometry; assay type: cell-based; details: 10 μM nutlin-3a, 25 μM GSK2830371, or both, 72 hours
Description: (§2) TPC1, K1, HCT116, MCF7, SJSA, and HEK293FT cells were cultivated in RPMI (TPC1, SJSA), DMEM (K1, MCF7, HEK293FT), and McCoy's (HCT116) media (Gibco, Thermo Fisher Scientific) supplemented with 10% fetal bovine serum (Peak Serum) and 1% antibiotic-antimycotic mixture (Gibco). Cells were plated a day before the treatment and maintained in a humidified atmosphere with 5% of CO2 at 37° C. Both TPC1 and K1 lines were gifts from Dr. Rebecca Schweppe, University of Colorado Anschutz Medical Campus (CU-AMC). Cell line identity has been verified by short tandem repeats profiling at the Cell Technologies Shared Resource, CU-AMC. Colorectal cancer organoid cultures (CRC172) were obtained from the Enteroid Stem Cell Core facility at CU-AMC.
(§3) The fraction of apoptotic cells was determined by Annexin V-FITC/PI assay. Briefly, cells harvested by trypsinization were resuspended in Annexin-V binding buffer (10 mM HEPES pH 7.4, 140 mM NaCl, 2.5 mM CaCl2)). Approximately 2*10^5 cells were labeled with Annexin-V-FITC (Invitrogen) and PI (10 μg/ml, Millipore-Sigma) for 15 minutes in the dark before flow cytometric analysis (Accuri C6, Becton Dickinson). To analyze mitochondrial membrane potential (44m) cells were trypsinized and resuspended in cultivation media. An aliquot of approximately 5*10^5 cells per sample was mixed with tetramethylrhodamine, ethyl ester, perchlorate (TMRE, Thermo Fisher, 100 nM final concentration) solution, incubated for 10 minutes in the dark, and analyzed by flow cytometer.

TPC1 cells [2] = experiment: as above; assay type: cell-based; details: 10 μM nutlin-3a, 25 μM GSK2830371, or both, 72 hours
Description: as §2, §3

K1 cells [3] = experiment: RNA-seq transcriptome analysis (DESeq2); assay type: cell-based, Human; details: for differentially expressed mRNAs versus vehicle: nutlin 10 μM, GSK2830371 25 μM, or both, 24 hours
Description: (§4) TPC1 and K1 cells were plated at 2*104/cm2 and treated for 24 hours as indicated. Following the treatment period, cells were washed with ice-cold PBS and lysed in TRI Reagent (Millipore Sigma). Quality of the extracted RNA was assessed by Agilent Bioanalyzer 2100 using RNA 6000 Pico chips (Agilent). Single-end 150 bp sequencing of the poly-A (+)-enriched RNA was carried out on the Illumina HiSeq 4000 platform by the Genomics Core facility at the University of Colorado Anschutz.
(§5) Quality of the sequencing data was analyzed using FASTQC (version 0.11.2, available at the website www.bioinformatics.babraham.ac.uk/projects/fastqc and presence of common sequencing contaminants was assessed by FastQ Screen (v0.4.4) available at the website www.bioinformatics.babraham.ac.uk/projects/fastq_screen/. Bases with low quality (Q<10) were 3′ end trimmed and reads shorter than 30 nt were discarded using the Fastx toolkit (v0.0.13.2). Reads were aligned to a GRCh37/hg19 Human reference using TopHat2 (v2.0.13,-b2-sensitive-keep-fasta-order-no-coverage-search-max-multihits 10-library-type fr-firststrand) (Kim et al., 2013) with the UCSC hg19 GTF annotation file provided in the iGenomes UCSC hg19 bundle available at the website: support.illumina.com/sequencing/sequencing_software/igenome.html. Aligned reads with MAPQ<10 quality were removed using SAMtools (v0.1.19). Alignments were then sorted by coordinates, and duplicates were identified using Picard (v1.129). Quality assessment of final mapped reads was conducted using RSeQC (v2.6) (Wang et al., 2012). Gene-level counts were obtained using HTSeq (v0.6.1) (Anders et al., 2015) with the following options (-stranded=reverse -minaqual=10-type=exon-idattr=gene_id_mode=intersection-nonempty) using the iGenomes UCSC hg19 GTF annotation file. Differential gene expression was evaluated using DESeq2 (version 1.6.3) (Love et al., 2014) in R (version 3.1.0), using q<0.05 (FDR<5%) and fold-change>1.5 (Up) or <1/1.5 (Down) as cutoffs for differentially expressed genes. Genome browser snapshots were generated from bedGraph or tgv files using IGV genome viewer (v2.8.10) (Thorvaldsdottir et al., 2013).

TPC1 cells [4] = experiment: RNA-seq transcriptome analysis (DESeq2); assay type: cell-based, Human; details: for differentially expressed mRNAs versus vehicle: nutlin 10 μM, GSK2830371 25 μM, or both, 24 hours
Description: as §4, §5

p53 = experiment: Western blot of p53 in thyroid carcinoma cells; assay type: cell-based; details: TPC1 and K1 cells; 10 μM nutlin-3a, 25 μM GSK2830371; 24 hours
Description: (§6) Following a brief sonication (2.5W, 5 sec) and heat denaturation (90° C., 5 min), total protein concentration in whole cell lysates was measured by a BCA Protein Assay Kit (Pierce, Thermo Fisher Scientific). 20 μg of protein per sample was resolved by SDS-PAGE and transferred onto a 0.45 μm PVDF membrane (0.2 μm for ATF3 detection). Membranes were incubated in blocking buffer (5% fat-free milk in wash buffer—20 mM Tris pH 7.6, 150 mM NaCl, 0.2% Tween 20) for an hour at RT and o/n at 4° C. with the primary antibody diluted in a fresh blocking buffer. Next day membranes were washed three times for 10 min in the wash buffer, incubated with HRP-conjugated secondary antibody for an hour at RT, and washed again three times in the wash buffer. SuperSignal West Pico Plus Chemiluminescence Substrate (Pierce) was used for detection and digital images were acquired using an ImageQuant LAS 4000 (GE Healthcare Life Sciences).

TPC1 and HCT116 = experiment: Polysome profiling (polysome/monosome ratio); assay type: cell-based; details: 24 hours
Description: TPC1 and HCT116 were plated at 6*104/cm2 on 143 cm2 dishes, cultivated o/n, and treated accordingly. Ten minutes before the harvest cultivation media was supplemented with cycloheximide (CHX) at final concentration of 100 μg/ml. Next, cells were washed twice with ice-cold PBS with 100 μg/ml CHX and lysed in polysome preparation lysis buffer (20 mM HEPES pH 7.4, 15 mM MgCl2, 200 mM NaCl, 1% Triton X-100, 100 μg/ml CHX, 2 mM DTT, and 100U SuperaseIN). Lysates were cleared of debris by centrifugation at 20,000g, 4° C. for 10 minutes. Total nucleic acid content in lysates was measured by absorbance at 260 nm and used for sample concentration normalization. Next, 500 μl of the lysate was loaded on 10-60% sucrose gradients in SW41 tubes in lysis buffer lacking Triton X-100. These gradients were prepared using a BioComp system and chilled to 4° C. before use. Samples were ultracentrifuged at 36,000 rpm for 3 hours and 10 min, at 4° C., then samples were fractionated using a BioComp system, monitoring absorbance at 260 nm while collecting fractions of approximately 0.4 ml each.

PPM1D = experiment: Western blot of PPM1D expression; assay type: cell-based; details: 25 μM GSK2830371; 24 hours
Description: as §6, with “Protein samples were prepared with cells washed twice with PBS and lysed in modified Laemmli buffer (Laemmli, 1970) (1% w/v SDS, 10% w/v glycerol, 100 mM Tris pH 7.2, protease (complete Mini, Roche) and phosphatase (PhosSTOP, Roche) inhibitors). Following” for “Following”

ATF3 and ATF4 mRNA = ATF3 and ATF4 mRNA induction (RNA-seq, Q-RT-PCR); assay type: cell-based, Human; details: TPC1, K1, and four other cell lines; 24 hours
Excerpt: as §1
as §4, with “Anschutz. […]” for “Anschutz.”

ATF3 and ATF4 gene loci = experiment: GRO-seq transcriptional activity at ATF3 and ATF4 gene loci; assay type: cell-based; details: 60 minutes of nutlin treatment (10 μM); three different cell lines
diverse cell types = experiment: Annexin V-FITC/PI apoptosis assay, elF2α plus MDM2 inhibition; assay type: cell-based
Description: as §2
as §3, with “To analyze mitochondrial membrane potential (44m) cells were trypsinized and resuspended in cultivation media.” left out

[5] = FDR<5%, adjusted fold change>1.5

Structure (SMILES): CC1(C)CCC2(CC1)N[C@@H](C(=O)N[C@@H]1CC[C@@H](C(N)=O)OC1)[C@H](c1ccnc(Cl)c1F)[C@]21C(=O)Nc2cc(Cl)ccc21 [milademetan]
- animal survival (Kaplan Meier; humane endpoint tumor size>1000 mm^3) (HCT116 xenograft tumors; oral gavage): had to be sacrificed at the humane endpoint
- tumor growth (HCT116 xenograft tumors; oral gavage once daily, 5 days a week): Tumors continued to grow
- effects on cell viability when administered alone (cell viability): limited effects on cell viability

Structure (SMILES): COc1ncc(-c2nc3c(n2C(C)C)[C@H](c2ccc(Cl)cc2)N(c2cc(Cl)cn(C)c2=O)C3=O)c(OC)n1 [siremadlin/HDM201, siremadlin]
- effects on cell viability when administered alone (cell viability): limited effects on cell viability

Structure (SMILES): COc1cc(C(=O)O)ccc1NC(=O)[C@@H]1N[C@@H](CC(C)(C)C)[C@](C#N)(c2ccc(Cl)cc2F)[C@H]1c1cccc(Cl)c1F [idasanutlin]
- effects on cell viability when administered alone (cell viability): limited effects on cell viability

Structure (SMILES): Cc1ncc(Cl)cc1NCc1ccc(C(=O)N[C@@H](CC2CCCC2)C(=O)NC2CC2)s1 [GSK2830371]
- apoptosis (Annexin V-FITC/PI) (K1 cells [1]): does not stabilize p53 or induce apoptosis
- apoptosis (Annexin V-FITC/PI) (TPC1 cells [2]): does not stabilize p53 or induce apoptosis
- differentially expressed mRNAs versus vehicle (K1 cells [3]): had little impact on the transcriptome
- differentially expressed mRNAs versus vehicle (TPC1 cells [4]): had little impact on the transcriptome
- effects on cell viability when administered alone (cell viability): limited effects on cell viability
- p53 stabilization (p53): does not stabilize p53
- polysome/monosome ratio (TPC1 and HCT116): decreases in the polysome/monosome ratio
- PPM1D expression (PPM1D): reduces PPM1D expression

Structure (SMILES): COc1ccc(C2=N[C@@H](c3ccc(Cl)cc3)[C@@H](c3ccc(Cl)cc3)N2C(=O)N2CCNC(=O)C2)c(OC(C)C)c1 [nutlin-3a]
- apoptosis (Annexin V-FITC/PI) (K1 cells [1]): does not cause p53-dependent apoptosis
- apoptosis (Annexin V-FITC/PI) (TPC1 cells [2]): does not cause p53-dependent apoptosis
- genes induced by both nutlin and nutlin+GSK2830371 (K1 cells [3]; [5]): 367 genes
- differentially expressed mRNAs versus vehicle (K1 cells [3]): hundreds of mRNAs significantly upregulated or downregulated
- genes induced by both nutlin and nutlin+GSK2830371 (TPC1 cells [4]; [5]): 1924 genes
- differentially expressed mRNAs versus vehicle (TPC1 cells [4]): hundreds of mRNAs significantly upregulated or downregulated
- ATF3 induction at the mRNA level (ATF3 and ATF4 mRNA): clear induction of ATF3
- ATF4 induction at the mRNA level (ATF3 and ATF4 mRNA): not ATF4
- effects on cell viability when administered alone (cell viability): limited effects on cell viability
- p53 stabilization (p53): stabilizes p53
- polysome/monosome ratio (TPC1 and HCT116): decreases in the polysome/monosome ratio
- transactivation of ATF3 (GRO-seq) (ATF3 and ATF4 gene loci): rapid transactivation of ATF3
- transactivation of ATF4 (GRO-seq) (ATF3 and ATF4 gene loci): not ATF4

Structure (SMILES): O=C(/C=C/c1ccccc1)NC(NC(=S)Nc1ccc(Cl)cc1)C(Cl)(Cl)Cl (stereo not drawn) [sal003]
- synergy with small molecule inhibitors of MDM2 to elicit p53-dependent cell death (diverse cell types): synergize with small molecule inhibitors of MDM2 to elicit p53-dependent cell death
